Results reported in patent publication US6528245B2, “Bone marrow cells as a source of neurons for brain and spinal cord repair” (University of South Florida, priority 1998, dated 2003).

How the values were obtained:
MSCs = conditions: 1 μg/ml, alone; cited from earlier work
human BMSC = assay: In vitro differentiation of human BMSC; immunocytochemistry and Western blot; type: cell-based; conditions: replated in medium containing the mitogen
Text: To briefly summarize, BMSC were separated from whole bone marrow of the mouse, calf and humans.
BMSC were isolated from residual bone marrow material (bone chips with adherent stromal cells, fatty tissue and debris) which was retained on the nylon mesh filters routinely used in filtering freshly procured human marrow to be used for bone marrow transplantation. The filtrate contains the bulk of the bone marrow hematopoietic elements that is then processed for human bone marrow replacement. We use the filters that were usually discarded. The filters were back washed five times with PBS. The PBS solution was centrifuged to deposit the heavier bone chips. The supernatant was resuspended in culture medium and plated in tissue culture flasks (as in Example 1). BMSC were separated by their adherence to plastic culture flasks, whereas the smaller hematopoietic stem cells remained suspended in the media and were removed when the culture media was replaced with fresh media. […]
After 7 days, expressions of neuronal markers (Nestin, Neuron Specific Nuclear protein or NeuN and GFAP) and a bone marrow stromal cell marker (fibronectin) were analyzed by Western blot analysis and immunocytochemistry (FIG. 6). […]

C[C@@H]1[C@H](O)[C@@H](C)/C=C/C=C/C=C/C=C/C=C/C=C/C=C/[C@H](O[C@@H]2O[C@H](C)[C@@H](O)[C@H](N)[C@@H]2O)C[C@@H]2O[C@](O)(C[C@@H](O)C[C@@H](O)[C@H](O)CC[C@@H](O)C[C@@H](O)CC(=O)O[C@H]1C)C[C@H](O)[C@H]2C(=O)O [amphotericin B]
differentiation of MSCs into myoblasts and myotubes (MSCs): differentiate into myoblasts and myotubes

EGF: epidermal growth factor, mitogen used at 10 ng/ml (NSDSECPLSHDGYCLHDGVCMYIEALDKYACNCVVGYIGERCQYRDLKWWELR; Epidermal growth factor; UniProt P01133 971-1023, looked up)
proliferation and differentiation of human bone marrow cells (human BMSC): proliferation of cells, without significant induction of differentiation
